Assays:
HDQ-P1 [1] = assay: normalised viability (% of control), CellTiter-Blue; higher = more viable cells (100 = DMSO, 0 = benzethonium chloride kill control); details: incubation time: 72 h
How it was run: (§1)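 Breast cancer cell lines were treated for 72 h in 384-well format and measured by CellTiter-Blue fluorescence at 560/590 nm. Results were normalised per plate to vehicle (100) and a positive kill control (0). The entry is normalised viability at a single listed concentration of the series.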

MDA-MB-231 [2] = assay: as above; details: incubation time: 72 h
How it was run: as §1

SK-BR-3 [3] = assay: as above; details: incubation time: 72 h
How it was run: as §1

DU-4475 [4] = assay: as above; details: incubation time: 72 h
How it was run: as §1

BT-474 [5] = assay: as above; details: incubation time: 72 h
How it was run: as §1

HDQ-P1 [6] = details: 72 h
How it was run: (§2)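 Per-plate normalisation used 0.1 % DMSO and a positive kill control. Breast cancer cell lines (20 µl suspension) were seeded into 384-well plates containing compound at 5 concentrations in 10-fold steps across a compound-specific 10,000-fold range, incubated for 72 h, and read first for CellTox Green fluorescence (485/520 nm), then for CellTiter-Glo luminescence. EC50 was fitted from the dose-response curves and censored at the top concentration.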

HCC1143 [7] = details: 72 h
How it was run: as §2

HCC1599 [8] = details: 72 h
How it was run: as §2

MFM-223 [9] = details: 72 h
How it was run: as §2

DU-4475 [10] = details: 72 h
How it was run: as §2

CAL-148 [11] = details: 72 h
How it was run: as §2

CAL-51 [12] = details: 72 h
How it was run: (§3)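 EC50 is the value from a fitted percent-inhibition dose-response curve, censored at the highest concentration, and rows with zero drug sensitivity score were not kept. The underlying assay seeded breast cancer cell lines in 20 µl onto 384-well plates pre-loaded with compound in 5 µl medium for 72 h. Viability was then read by CellTiter-Blue fluorescence at 560/590 nm after 2 h at 37 °C, with each plate normalised to vehicle and a positive kill control.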

HDQ-P1 [13] = details: 72 h; remark: listed apart in the source
How it was run: as §3

CAL-85-1 [14] = details: 72 h
How it was run: as §3

DU-4475 [15] = details: 72 h; remark: listed apart in the source
How it was run: as §3

CAL-148 [16] = details: 72 h; remark: listed apart in the source
How it was run: as §3

MCF-10A = details: 72 h
Procedure: (§4)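 Drug sensitivity and resistance testing (DSRT) of breast cancer cell lines in 384-well plates, 5 concentrations in 10-fold dilutions over a compound-specific 10,000-fold range. After 72 h, cytotoxicity was read by CellTox Green fluorescence and viability by CellTiter-Glo luminescence (multiplexed), normalised to DMSO and benzethonium chloride controls. EC50 is the inflection point of the fitted dose-response curve (bottom asymptote free, so it can be relative for partial curves) and is censored at the highest tested concentration. Rows with DSS 0 (no meaningful response) were excluded.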

CAL-51 [17] = details: 72 h; remark: listed apart in the source
Procedure: as §4

CAL-85-1 [18] = details: 72 h; remark: listed apart in the source
Procedure: as §4

HCC1599 [19] = details: 72 h; remark: listed apart in the source
Procedure: as §4

MDA-MB-231 [20] = details: 72 h
Procedure: as §4

MFM-223 [21] = details: 72 h; remark: listed apart in the source
Procedure: as §4

Hs578T [22] = details: 72 h
Procedure: as §4

BT-474 [23] = details: 72 h
Procedure: as §4

BT-549 [24] = details: 72 h
Procedure: as §4

MDA-MB-468 [25] = details: 72 h
Procedure: as §4

HCC1143 [26] = details: 72 h; remark: listed apart in the source
How it was run: as §3

HCC1599 [27] = details: 72 h; remark: listed apart in the source
How it was run: as §3

MDA-MB-231 [28] = details: 72 h; remark: listed apart in the source
How it was run: as §3

MDA-MB-436 [29] = details: 72 h
How it was run: as §3

CAL-120 = details: 72 h
How it was run: as §3

MFM-223 [30] = details: 72 h; remark: listed apart in the source
How it was run: as §3

Hs578T [31] = details: 72 h; remark: listed apart in the source
How it was run: as §3

SK-BR-3 [32] = details: 72 h
How it was run: as §3

BT-474 [33] = details: 72 h; remark: listed apart in the source
How it was run: as §3

HCC1937 = details: 72 h
How it was run: as §3

BT-549 [34] = details: 72 h; remark: listed apart in the source
How it was run: as §3

MDA-MB-468 [35] = details: 72 h; remark: listed apart in the source
How it was run: as §3

MDA-MB-436 [36] = details: 72 h; remark: listed apart in the source
Procedure: as §4

DU-4475 [37] = details: 72 h; remark: listed apart in the source
Procedure: as §4

Compound: CC[C@]1(O)C[C@H]2CN(CCc3c([nH]c4ccccc34)[C@@](C(=O)OC)(c3cc4c(cc3OC)N(C=O)[C@H]3[C@@](O)(C(=O)OC)[C@H](OC(C)=O)[C@]5(CC)C=CCN6CC[C@]43[C@@H]65)C2)C1 [Vincristine]
- normalised viability (HDQ-P1 [1]; 0.1 nM): 90%
- normalised viability (HDQ-P1 [1]; 1 nM): 95.3%
- normalised viability (MDA-MB-231 [2]; 0.1 nM): 95.8%
- normalised viability (MDA-MB-231 [2]; 1 nM): 82.5%
- normalised viability (SK-BR-3 [3]; 0.1 nM): 87.9%
- normalised viability (SK-BR-3 [3]; 1 nM): 25.5%
- normalised viability (DU-4475 [4]; 0.1 nM): 97.6%
- normalised viability (DU-4475 [4]; 1 nM): 88.9%
- normalised viability (BT-474 [5]; 0.1 nM): 97.2%
- normalised viability (BT-474 [5]; 1 nM): 41.5%
- EC50, CellTiter-Glo (HDQ-P1 [6]): 2.22 nM
- EC50, CellTiter-Glo (HCC1143 [7]): 3.31 nM
- EC50, CellTiter-Glo (HCC1599 [8]): 11.1 nM
- EC50, CellTiter-Glo (MFM-223 [9]): 19.9 nM
- EC50, CellTiter-Glo (DU-4475 [10]): 157 nM
- EC50, CellTiter-Glo (CAL-148 [11]): 6.48 nM
- EC50, CellTiter-Blue viability (CAL-51 [12]): 26.7 nM
- EC50, CellTiter-Blue viability (HDQ-P1 [13]): 11.2 nM
- EC50, CellTiter-Blue viability (CAL-85-1 [14]): 5.33 nM
- EC50, CellTiter-Blue viability (DU-4475 [15]): 17.9 nM
- EC50, CellTiter-Blue viability (CAL-148 [16]): 8.72 nM
- EC50, CellTox Green (MCF-10A): 4.1 nM
- EC50, CellTox Green (CAL-51 [17]): 28.1 nM
- EC50, CellTox Green (CAL-85-1 [18]): 2.39 nM
- EC50, CellTox Green (HCC1599 [19]): 489 nM
- EC50, CellTox Green (MDA-MB-231 [20]): 5.49 nM
- EC50, CellTox Green (MFM-223 [21]): 20 nM
- EC50, CellTox Green (Hs578T [22]): 85.1 nM
- EC50, CellTox Green (BT-474 [23]): 4.19 nM
- EC50, CellTox Green (BT-549 [24]): 9.1 nM
- EC50, CellTox Green (MDA-MB-468 [25]): 9.6 nM
- EC50, CellTiter-Blue viability (HCC1143 [26]): 1.62 nM
- EC50, CellTiter-Blue viability (HCC1599 [27]): 27.7 nM
- EC50, CellTiter-Blue viability (MDA-MB-231 [28]): 2.49 nM
- EC50, CellTiter-Blue viability (MDA-MB-436 [29]): 8.21 nM
- EC50, CellTiter-Blue viability (CAL-120): 1 nM
- EC50, CellTiter-Blue viability (MFM-223 [30]): 16.9 nM
- EC50, CellTiter-Blue viability (Hs578T [31]): 2.72 nM
- EC50, CellTiter-Blue viability (SK-BR-3 [32]): 0.608 nM
- EC50, CellTiter-Blue viability (BT-474 [33]): 0.3 nM
- EC50, CellTiter-Blue viability (HCC1937): 3.57 nM
- EC50, CellTiter-Blue viability (BT-549 [34]): 3.8 nM
- EC50, CellTiter-Blue viability (MDA-MB-468 [35]): 0.6 nM

Compound: NS(=O)(=O)OC[C@@H]1C[C@@H](n2ccc3c(N[C@H]4CCc5ccccc54)ncnc32)C[C@@H]1O [Pevonedistat]
- EC50, CellTiter-Glo (HDQ-P1 [6]): 1560 nM
- EC50, CellTiter-Glo (HCC1143 [7]): 845 nM
- EC50, CellTiter-Glo (HCC1599 [8]): 365 nM
- EC50, CellTiter-Glo (MFM-223 [9]): 155 nM
- EC50, CellTiter-Glo (DU-4475 [10]): 137 nM
- EC50, CellTox Green (CAL-51 [17]): 82.6 nM
- EC50, CellTox Green (HCC1599 [19]): 1840 nM
- EC50, CellTox Green (MDA-MB-436 [36]): 1510 nM
- EC50, CellTox Green (DU-4475 [37]): 327 nM
- EC50, CellTox Green (MDA-MB-468 [25]): 436 nM
